Laboratory results: article PMC4413211, “Esters of the Marine-Derived Triterpene Sipholenol A Reverse P-GP-Mediated Drug Resistance” (Marine Drugs, 2015)
pEC50: −log10 of the molar value.

Experiments:
SW620/Ad300 = system: T1, SW620/Ad300; assay: cells; set-up: MTT cytotoxicity assay, absorbance at 570 nm; conditions: Homo sapiens, SW620/AD300, 72 h
T1 construct: doxorubicin-selected, P-gp overexpressing
Protocol: (§1) The MTT colorimetric assay was used to detect the sensitivity of cells to anticancer drugs. Cells were harvested with trypsin treatment. After washing with PBS, cells were resuspended in the culture media. Cells with a final concentration of 5 × 10^3 cells/well were seeded evenly into 96-well plates with 160 μL media. For the reversal experiments, SSJ compounds, verapamil, FTC or PAK104P (20 μL/well) was added followed by different concentrations of chemotherapeutic drugs (20 μL/well) into designated wells. After 72 h of incubation, 20 μL of MTT solution (5 mg/mL) was added to each well, and the plate was further incubated for 4 h, allowing viable cells to convert the yellow colored MTT into dark-blue formazan crystals. Subsequently, the medium was discarded, and 100 μL of dimethylsulfoxide (DMSO) was added into each well to dissolve the formazan crystals. The absorbance was determined at 570 nm by an OPSYS Microplate Reader from DYNEX Technologies Inc. (Chantilly, VA, USA) followed previously described protocol. The fold of resistance was calculated by dividing the IC50 (concentrations required to inhibit growth by 50%) of the MDR cells by that of the parental sensitive cells. Sipholane analogs (14 compounds) were first tested for cytotoxicity using MTT assay on colon cancer cells SW620 (drug-sensitive) and SW620/Ad300 (drug-resistant). […] Because these compounds were used at a concentration of 5 μM, which is the non-toxic concentration for all of them, they were considered to have no direct cytotoxic effect on cells. HEK293/pcDNA3.1, HEK/ABCB1, HEK/ABCG2 and HEK/ABCC1 cells were generated by transfecting the HEK293 cells with either empty pcDNA3.1 vector, ABCB1 expression vector, ABCG2 expression vector or ABCC1 expression vector respectively. HEK/ABCC1 was generated in the laboratory of Suresh V. Ambudkar (NCI, NIH, Bethesda, MD, USA). The human colon cancer cell line SW620 and doxorubicin-selected P-gp overexpressing SW620/Ad300 cell line were used for the reversal study. SW620, SW620/Ad300 and HEK/ABCG2 cells were also kindly provided by Susan Bates and Robert Robey (NCI, NIH, Bethesda, MD, USA). All the cell lines were grown as adherent monolayers in flasks with DMEM culture medium (GE Healthcare Life Sciences, Logan, UT, USA) supplemented with 10% bovine serum in a humidified incubator containing of 5% CO2 at 37 °C.

SW620 = assay: cells; set-up: species or system SW620; SW620/Ad300; MTT cytotoxicity assay, absorbance at 570 nm; conditions: Homo sapiens, SW-620, 72 h
Protocol: as §1

[1] = target: T2, P-glycoprotein (P-gp/ABCB1) (Homo sapiens, UniProt P08183); assay: Vanadate-sensitive ATPase stimulation in recombinant human P-gp membranes; supported by [3H]-paclitaxel accumulation/efflux in cells; format: biochemical; set-up: Recombinant human P-gp membrane
[2] = target: T2, P-glycoprotein (P-gp/ABCB1)

T2 sequence (P08183 whole entry): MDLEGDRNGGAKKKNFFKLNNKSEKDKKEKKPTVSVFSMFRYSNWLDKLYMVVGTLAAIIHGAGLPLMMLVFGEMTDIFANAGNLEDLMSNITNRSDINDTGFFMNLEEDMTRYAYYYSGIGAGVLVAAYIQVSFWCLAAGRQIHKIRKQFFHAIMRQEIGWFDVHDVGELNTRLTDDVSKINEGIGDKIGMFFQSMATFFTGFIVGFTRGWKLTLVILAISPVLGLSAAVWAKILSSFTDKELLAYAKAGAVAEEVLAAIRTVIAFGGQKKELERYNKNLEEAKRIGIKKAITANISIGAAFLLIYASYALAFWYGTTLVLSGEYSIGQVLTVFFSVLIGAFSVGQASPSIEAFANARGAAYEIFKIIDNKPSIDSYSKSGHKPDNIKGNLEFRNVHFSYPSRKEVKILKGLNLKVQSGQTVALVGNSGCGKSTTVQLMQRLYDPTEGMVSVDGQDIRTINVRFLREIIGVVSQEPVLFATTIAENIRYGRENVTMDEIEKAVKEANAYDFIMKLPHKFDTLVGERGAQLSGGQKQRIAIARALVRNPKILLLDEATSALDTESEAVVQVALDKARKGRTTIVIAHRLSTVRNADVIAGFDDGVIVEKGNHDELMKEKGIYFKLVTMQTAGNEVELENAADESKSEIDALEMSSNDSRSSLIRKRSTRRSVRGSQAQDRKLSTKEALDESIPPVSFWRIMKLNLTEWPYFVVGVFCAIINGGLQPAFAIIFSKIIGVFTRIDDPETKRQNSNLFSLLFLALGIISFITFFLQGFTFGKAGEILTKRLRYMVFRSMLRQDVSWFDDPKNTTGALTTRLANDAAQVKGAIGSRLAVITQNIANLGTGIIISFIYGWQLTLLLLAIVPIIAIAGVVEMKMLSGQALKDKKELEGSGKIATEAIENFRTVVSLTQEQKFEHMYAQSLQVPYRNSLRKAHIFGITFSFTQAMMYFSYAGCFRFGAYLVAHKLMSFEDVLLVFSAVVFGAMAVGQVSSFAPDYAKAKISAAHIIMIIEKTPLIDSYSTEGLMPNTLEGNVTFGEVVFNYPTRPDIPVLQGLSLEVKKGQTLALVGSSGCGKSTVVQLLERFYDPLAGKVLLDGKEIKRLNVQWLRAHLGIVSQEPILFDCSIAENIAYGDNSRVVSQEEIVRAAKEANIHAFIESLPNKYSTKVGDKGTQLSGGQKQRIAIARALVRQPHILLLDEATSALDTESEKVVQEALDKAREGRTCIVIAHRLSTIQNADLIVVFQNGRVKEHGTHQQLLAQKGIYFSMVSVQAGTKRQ

Work on CC1=CCC2C(CCC2(C)O)C(C)(C)C1CCC1C(C)(O)CCC2OC(C)(C)C(OC(=O)CCC(=O)O)CCC21C (stereo not drawn) [SSJ25 (2)] yielded an IC50 (SW620/Ad300) of over 30 µM and an IC50 (SW620) of over 30 µM.

For CC(=O)O[C@H]1CC[C@]2(C)[C@H](CC[C@@](C)(O)[C@H]2CC[C@H]2C(C)=CC[C@H]3[C@H](CC[C@]3(C)O)C2(C)C)OC1(C)C [SSJ26, sipholenol A-4-O-acetate], the pEC50 [1] was 6.59, the IC50 (SW620/Ad300) was over 30 µM and the IC50 (SW620) was over 30 µM.

In the case of CC(=O)OC1CCC2(C)C(CCC(C)(O)C2CCC2C(C)=CCC3C(CCC3(C)OC(C)=O)C2(C)C)OC1(C)C (stereo not drawn) [SSJ27 (4)], the IC50 (SW620/Ad300) was over 30 µM and the IC50 (SW620) was over 30 µM.

For CC1=CCC2C1CC=C(C)C(CCC1C(C)(O)CCC3OC(C)(C)C(O)CCC31C)C2(C)C (stereo not drawn) [SSJ28 (5)], the IC50 (SW620/Ad300) was over 30 µM and the IC50 (SW620) was over 30 µM.

CC1=CCC2C1CC=C(C)C(CCC1C(C)(O)CCC3OC(C)(C)C(OC(=O)c4ccccc4)CCC31C)C2(C)C (stereo not drawn) [SSJ29 (6)] was tested, and the IC50 (SW620/Ad300) was over 30 µM and the IC50 (SW620) was over 30 µM.

Compound CC1=CCC2C(CCC2(C)O)C(C)(C)C1CCC1C(C)(O)CCC2OC(C)(C)C(OC(=O)c3ccccc3)CCC21C (stereo not drawn) [SSJ31 (8)] has an IC50 (SW620/Ad300) of over 30 µM and an IC50 (SW620) of over 30 µM.

Work on CC1=CC[C@H]2[C@H](CC[C@]2(C)O)C(C)(C)[C@H]1CC[C@H]1[C@]2(C)CC[C@H](OC(=O)c3ccncc3)C(C)(C)O[C@H]2CC[C@@]1(C)O [SSJ32, sipholenol A-4-O-isonicotinate] yielded a pEC50 [1] of 6.22, an IC50 (SW620/Ad300) of over 30 µM and an IC50 (SW620) of over 30 µM.

Work on CC1=CCC2C1CC=C(C)C(CCC1C(C)(O)CCC3OC(C)(C)C(OC(=O)c4ccncc4)CCC31C)C2(C)C (stereo not drawn) [SSJ33 (10)] yielded an IC50 (SW620/Ad300) of over 30 µM and an IC50 (SW620) of over 30 µM.

CC1=CCC2C1CC=C(C)C(CCC1C(C)(O)CCC3OC(C)(C)C(OC(=O)CCC(=O)O)CCC31C)C2(C)C (stereo not drawn) [SSJ34 (11)] showed an IC50 (SW620/Ad300) of over 30 µM and an IC50 (SW620) of over 30 µM.

In the case of CC(=O)OC1CCC2(C)C(CCC(C)(O)C2CCC2C(C)=CCC3C(C)=CCC3C2(C)C)OC1(C)C (stereo not drawn) [SSJ35 (12)], the IC50 (SW620/Ad300) was over 30 µM and the IC50 (SW620) was over 30 µM.

Compound CC1=CCC2C(CCC2(C)O)C(C)(C)C1CCC1C(C)(O)CCC2OC(C)(C)C(OCc3ccccc3)CCC21C (stereo not drawn) [SSJ36 (13)] has an IC50 (SW620/Ad300) of over 30 µM and an IC50 (SW620) of over 30 µM.

Compound CC1=CCC2C1CC=C(C)C(CCC1C(C)(O)CCC3OC(C)(C)C(OCc4ccccc4)CCC31C)C2(C)C (stereo not drawn) [SSJ37 (14)] has an IC50 (SW620/Ad300) of over 30 µM and an IC50 (SW620) of over 30 µM.

For CC(=O)O[C@H]1C(=O)[C@@]2(C)[C@H]([C@H](OC(=O)c3ccccc3)[C@]3(O)C[C@H](OC(=O)[C@H](O)[C@@H](NC(=O)c4ccccc4)c4ccccc4)C(C)=C1C3(C)C)[C@]1(OC(C)=O)CO[C@@H]1C[C@@H]2O [paclitaxel], the “[3H]-paclitaxel accumulation and efflux, resistant versus parental cells” value [2] was “while the paclitaxel level significantly decreased in SW620/Ad300 drug-resistant cells, the levels of paclitaxel remained stable in parental SW620”.
